Experimental data from article PMC8413479 (Journal of molecular biology, 2021).

Legend:
[1] = system: SARS-CoV-2 Spike/ACE2; Spike-expressing U2OS cells fusing with ACE2-producing Calu-3 cells; format: cell-based, human cells; SARS-CoV-2 Spike
[2] = system: SARS-CoV-2 Spike-pseudotyped viruses (HIV-based), H1299 cells; format: cell-based, SARS-CoV-2 Spike (HIV-based pseudovirus); human H1299 cells
SARS-CoV-2 Spike protein [3] = assay: Differential scanning fluorimetry; format: binding; details: 1 μM Spike, PBS, Sypro Orange
SARS-CoV-2 Spike protein [4] = format: biochemical
[5] = system: SARS-CoV-2 (USA-WA1/2020), Vero E6 cells; format: cell-based
[6] = system: SARS-CoV-2 (USA-WA1/2020), Vero E6 cells
[7] = system: SARS-CoV-2 Spike pseudovirus; details: cited from earlier work
[8] = system: human angiotensin-converting enzyme 2 (ACE2 receptor); details: on enterocytes; cited from earlier work
[9] = micromolar concentrations of defensin

Molecule | inhibition of syncytia formation [1] | effect of serum on inhibition of pseudovirus infection [2] | inhibition of infection after pre-incubation of pseudovirus [2] | pseudovirus infection efficiency after pre-treatment of cells [2] | Spike destabilization relative to HNP1 (SARS-CoV-2 Spike protein [3]) | destabilization of Spike protein (SARS-CoV-2 Spike protein [3]; [9]) | melting peak of Spike (SARS-CoV-2 Spike protein [3]; [9]) | aggregation and precipitation of Spike (SARS-CoV-2 Spike protein [4]) | SARS-CoV-2 infectivity [5] | inhibition of SARS-CoV-2 infection [6] | IC50 ([6]; USA-WA1/2020), Vero E6 cells, 24 h) | SARS-CoV-2 Spike pseudovirus infection [7] | binding to human ACE2 [8]
CC[C@H](C)[C@@H]1NC(=O)CNC(=O)[C@H](CCCCN)NC(=O)CNC(=O)[C@@H]2CSSC[C@H](NC1=O)C(=O)N[C@@H](CCCNC(=N)N)C(=O)N[C@H]1CSSC[C@H](NC(=O)[C@H](CCCNC(=N)N)NC(=O)[C@@H]3CSSC[C@H](NC(=O)[C@H]([C@@H](C)CC)NC1=O)C(=O)NCC(=O)N[C@@H](CCCNC(=N)N)C(=O)NCC(=O)N[C@@H]([C@@H](C)CC)C(=O)N3)C(=O)N[C@@H]([C@@H](C)CC)C(=O)N2 [RC-101] | strongly inhibited syncytia formation | serum had a negative influence on the inhibitory ability | significantly inhibited the infection | did not affect the pseudovirus infection efficiency | less prominent than for HNP1 | destabilized | loss of the melting peak at its normal position | partial aggregation and precipitation | strongly inhibited | inhibited SARS-CoV-2 infection | 29 ± 7.6 µM | – | –
HD5: enteric human α-defensin HD5 (peptide, UniProt Q01523 20-94, looked up, Defensin-5) Defensin alpha 5: ESLQERADEATTQKQSGEDNQDLAISFAGNGLSALRTSGSQARATCYCRTGRCATRESLSGVCEISGRLYRLCCR | – | – | – | – | – | – | – | – | – | – | – | inhibition of SARS-CoV-2 Spike pseudovirus infection | binds to human angiotensin-converting enzyme 2
